In one data set the target is T1, Estrogen receptor (Homo sapiens, UniProt P03372).
T1 sequence (P03372 whole entry): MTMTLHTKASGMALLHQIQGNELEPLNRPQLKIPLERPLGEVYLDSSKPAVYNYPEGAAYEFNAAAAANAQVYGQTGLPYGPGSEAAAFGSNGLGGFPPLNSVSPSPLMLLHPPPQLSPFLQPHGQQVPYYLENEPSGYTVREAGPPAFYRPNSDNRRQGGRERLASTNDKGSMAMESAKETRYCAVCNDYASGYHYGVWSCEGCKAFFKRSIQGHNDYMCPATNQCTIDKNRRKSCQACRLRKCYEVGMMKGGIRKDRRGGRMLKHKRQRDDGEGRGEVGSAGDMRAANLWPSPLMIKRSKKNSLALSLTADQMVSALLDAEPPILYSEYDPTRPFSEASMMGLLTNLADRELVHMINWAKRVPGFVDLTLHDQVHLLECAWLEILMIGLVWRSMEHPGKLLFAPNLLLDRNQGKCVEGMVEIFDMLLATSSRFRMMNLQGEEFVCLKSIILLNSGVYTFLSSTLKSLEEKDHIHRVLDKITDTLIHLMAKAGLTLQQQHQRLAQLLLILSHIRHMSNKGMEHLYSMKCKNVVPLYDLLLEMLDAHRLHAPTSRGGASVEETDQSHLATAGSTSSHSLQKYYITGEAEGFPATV
Nature of the data set: Antagonist activity at estrogen receptor. It counts as functional.

The target of the next data set is T2, Glucocorticoid receptor (Homo sapiens, UniProt P04150).
T2 sequence (P04150 whole entry): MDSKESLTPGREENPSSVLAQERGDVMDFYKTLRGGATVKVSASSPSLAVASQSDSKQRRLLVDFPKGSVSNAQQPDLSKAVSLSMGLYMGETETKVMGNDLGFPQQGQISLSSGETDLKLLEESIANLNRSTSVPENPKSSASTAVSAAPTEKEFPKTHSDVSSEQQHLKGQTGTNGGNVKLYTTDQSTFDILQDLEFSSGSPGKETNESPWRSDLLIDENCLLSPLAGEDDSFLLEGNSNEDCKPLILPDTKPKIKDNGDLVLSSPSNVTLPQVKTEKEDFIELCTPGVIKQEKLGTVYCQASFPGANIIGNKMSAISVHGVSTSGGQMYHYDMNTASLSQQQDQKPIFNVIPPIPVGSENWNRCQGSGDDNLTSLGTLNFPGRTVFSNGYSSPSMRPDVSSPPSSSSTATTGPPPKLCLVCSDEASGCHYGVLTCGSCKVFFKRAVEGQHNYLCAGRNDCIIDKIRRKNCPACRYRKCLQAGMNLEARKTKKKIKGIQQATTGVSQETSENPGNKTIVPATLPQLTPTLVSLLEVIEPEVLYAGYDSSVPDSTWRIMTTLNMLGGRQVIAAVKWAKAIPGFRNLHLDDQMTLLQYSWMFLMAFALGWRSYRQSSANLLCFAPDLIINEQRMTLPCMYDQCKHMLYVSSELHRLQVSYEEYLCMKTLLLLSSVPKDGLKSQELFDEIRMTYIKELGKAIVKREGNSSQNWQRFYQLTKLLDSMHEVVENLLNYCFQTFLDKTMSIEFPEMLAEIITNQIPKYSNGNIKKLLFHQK

Data set [1] addresses T3, Mineralocorticoid receptor (Homo sapiens, UniProt P08235).
T3 sequence (P08235 whole entry): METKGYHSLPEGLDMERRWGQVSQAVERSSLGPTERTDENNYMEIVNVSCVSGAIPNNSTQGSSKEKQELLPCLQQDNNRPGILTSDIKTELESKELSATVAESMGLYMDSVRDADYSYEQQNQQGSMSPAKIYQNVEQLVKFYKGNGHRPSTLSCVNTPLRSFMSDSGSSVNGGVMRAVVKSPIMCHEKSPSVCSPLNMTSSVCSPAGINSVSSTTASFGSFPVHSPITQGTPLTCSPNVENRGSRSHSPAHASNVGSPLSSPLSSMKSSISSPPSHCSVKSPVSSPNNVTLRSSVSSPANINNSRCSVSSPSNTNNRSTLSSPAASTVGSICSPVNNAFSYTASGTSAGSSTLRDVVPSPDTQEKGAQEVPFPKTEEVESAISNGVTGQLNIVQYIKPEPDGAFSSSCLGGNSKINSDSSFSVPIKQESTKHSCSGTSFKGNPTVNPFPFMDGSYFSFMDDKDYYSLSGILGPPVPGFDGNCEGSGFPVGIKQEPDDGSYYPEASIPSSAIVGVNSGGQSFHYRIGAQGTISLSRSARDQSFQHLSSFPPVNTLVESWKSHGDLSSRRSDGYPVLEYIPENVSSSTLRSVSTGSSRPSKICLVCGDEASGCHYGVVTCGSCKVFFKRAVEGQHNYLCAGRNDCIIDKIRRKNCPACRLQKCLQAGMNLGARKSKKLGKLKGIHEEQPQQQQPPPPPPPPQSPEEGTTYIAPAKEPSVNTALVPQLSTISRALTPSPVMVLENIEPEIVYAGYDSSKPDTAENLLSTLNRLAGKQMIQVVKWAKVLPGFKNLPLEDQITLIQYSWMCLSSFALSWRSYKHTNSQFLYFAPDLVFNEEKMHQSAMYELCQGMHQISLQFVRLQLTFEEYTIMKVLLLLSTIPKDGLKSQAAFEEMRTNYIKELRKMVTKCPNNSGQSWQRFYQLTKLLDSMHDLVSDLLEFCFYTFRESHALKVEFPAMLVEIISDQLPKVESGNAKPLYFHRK
It counts as functional, cell-based, Huh-7.

Data set [2] deals with Voltage-gated inwardly rectifying potassium channel KCNH2 (Homo sapiens, UniProt Q12809).
Data set [3] can be described thus: Clearance in Sprague-Dawley rat at 2 mg/kg, iv. On the set-up: dose 2 mg/kg, route intravenous. It counts as ADME, organism-based. As to conditions: in vivo.
A short description of data set [4]: Volume of distribution at steady state in Sprague-Dawley rat at 2 mg/kg, iv. As to conditions: in vivo, read-out: Vdss. On the set-up: dose 2 mg/kg, route intravenous. The data set is classed as ADME, organism-based.
Data set [5] is described as follows: Half life in Sprague-Dawley rat at 2 mg/kg, iv. As to conditions: in vivo. Set-up: dose 2 mg/kg, route intravenous. It counts as ADME, organism-based.
Data set [6] is described as follows: Oral bioavailability in Sprague-Dawley rat at 2 mg/kg. It counts as ADME, organism-based. The settings on record: in vivo.

These results are taken from ChEMBL document CHEMBL1212897 (J Med Chem, 2010).

Where only a bound is given, the exact number is not on record here.

Sequence of Voltage-gated inwardly rectifying potassium channel KCNH2 (Q12809 whole entry): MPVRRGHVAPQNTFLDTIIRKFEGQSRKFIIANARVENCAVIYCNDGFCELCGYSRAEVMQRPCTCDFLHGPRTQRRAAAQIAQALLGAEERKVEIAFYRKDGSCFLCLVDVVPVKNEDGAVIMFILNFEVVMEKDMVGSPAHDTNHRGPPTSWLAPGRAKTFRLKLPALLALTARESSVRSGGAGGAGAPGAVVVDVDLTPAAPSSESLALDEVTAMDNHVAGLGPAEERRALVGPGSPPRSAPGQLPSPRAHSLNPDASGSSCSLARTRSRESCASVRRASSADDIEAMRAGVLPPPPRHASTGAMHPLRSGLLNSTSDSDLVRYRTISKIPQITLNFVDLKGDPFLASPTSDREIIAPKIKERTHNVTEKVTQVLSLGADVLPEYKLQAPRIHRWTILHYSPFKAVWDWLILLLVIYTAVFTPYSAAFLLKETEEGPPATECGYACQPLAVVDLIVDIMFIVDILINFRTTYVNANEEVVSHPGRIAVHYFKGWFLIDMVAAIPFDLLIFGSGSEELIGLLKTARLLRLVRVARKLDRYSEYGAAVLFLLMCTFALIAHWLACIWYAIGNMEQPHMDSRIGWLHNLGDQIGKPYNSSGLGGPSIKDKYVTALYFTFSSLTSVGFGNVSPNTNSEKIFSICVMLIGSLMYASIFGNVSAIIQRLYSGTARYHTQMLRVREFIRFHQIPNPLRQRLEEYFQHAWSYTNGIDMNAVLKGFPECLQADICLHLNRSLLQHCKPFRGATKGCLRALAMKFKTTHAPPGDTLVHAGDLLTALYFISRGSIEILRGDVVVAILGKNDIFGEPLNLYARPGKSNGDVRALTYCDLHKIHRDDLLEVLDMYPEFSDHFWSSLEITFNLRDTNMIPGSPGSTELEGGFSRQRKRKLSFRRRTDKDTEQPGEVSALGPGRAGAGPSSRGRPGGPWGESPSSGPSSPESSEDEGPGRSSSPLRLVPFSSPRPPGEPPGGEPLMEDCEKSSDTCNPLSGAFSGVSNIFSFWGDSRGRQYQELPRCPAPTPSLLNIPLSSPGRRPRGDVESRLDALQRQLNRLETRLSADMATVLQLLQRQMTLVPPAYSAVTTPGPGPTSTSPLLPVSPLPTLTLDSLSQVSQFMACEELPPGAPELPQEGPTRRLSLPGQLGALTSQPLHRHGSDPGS

For `CC(=O)S[C@@H]1CC2=CC(=O)CC[C@]2(C)[C@H]2CC[C@@]3(C)[C@@H](CC[C@@]34CCC(=O)O4)[C@H]12` [SPIRONOLACTONE], the half-maximal inhibitory concentration (IC50) on Estrogen receptor was found to be 5.7 µM; against Glucocorticoid receptor, 6.92 µM.

Regarding `O=C(O)c1ccc(N2N=C(c3ccc4[nH]c(=O)oc4c3)CC2c2ccc(F)cc2)cc1` (racemic), the figures for the half-inhibitory concentration (IC50) in data set [1] and in data set [2] were 784 nM and over 30000 nM, respectively.

With `COC(=O)[C@@H]1CC2=CC(=O)CC[C@]2(C)[C@@]23O[C@@H]2C[C@@]2(C)[C@@H](CC[C@@]24CCC(=O)O4)[C@H]13` [EPLERENONE], the IC50 at Estrogen receptor is over 10 µM.

On to `Cc1nc(C)c(C2=NN(c3ccc(C#N)cc3)[C@@H](c3ccc(F)cc3)C2)s1`, for which, in data set [1], 32 nM corresponded to half-maximal inhibition (IC50).

Turning to `CCOC(=O)c1ccc(N2N=C(c3ccc(C(=O)O)cc3)CC2c2ccc(F)cc2)cc1` (racemic), in data set [1], the half-maximal inhibitory concentration (IC50) worked out at 180 nM.

`N#Cc1ccc(N2N=C3c4ccc(C(=O)O)cc4CC[C@H]3[C@H]2c2ccc(F)cc2)cc1Cl` (racemic) had a concentration for half-maximal inhibition (IC50) in data set [1] of 223 nM.

For the compound `O=[N+]([O-])c1ccc(N2N=C(c3ccc(O)cc3)CC2c2ccc(F)cc2)cc1` (racemic), the IC50 in data set [1] was 460 nM.

Take `N#Cc1ccc(N2N=C(c3ccc4[nH]c(=O)oc4c3)C[C@@H]2c2ccc(F)cc2)cc1`: the concentration for half-maximal inhibition (IC50) in data set [1] stood at 41 nM; in data set [2], 29 nM.

Compound `N#Cc1ccc(N2N=C(c3ccc(C(=O)O)cc3)CC2c2ccco2)cc1` (racemic) returned a half-inhibitory concentration (IC50) in data set [1] of 410 nM.

`CN(C)CCN(C)C(=O)c1ccc(C2=NN(c3ccc(C#N)cc3)C(c3ccc(F)cc3)C2)cc1` (racemic): the half-inhibitory concentration (IC50) in data set [1] was 83 nM; in data set [2], 170 nM.

`COc1ccc(N2N=C(c3ccc(C(=O)O)cc3)CC2c2ccc(F)cc2)cc1` (racemic) displayed a concentration for half-maximal inhibition (IC50) in data set [1] of 1440 nM.

`COc1cc(C2=NN(c3ccc(C#N)c(Cl)c3)[C@@H](C3CCCC3)C2)ccc1C(=O)O` yielded a concentration for half-maximal inhibition (IC50) against Estrogen receptor of over 10 µM. Moreover, the clearance in data set [3] was determined as 24 mL/min/kg. Further, the Vd in data set [4] was determined as 3.9 L/kg. This compound also gave a half-life in data set [5] of 114 min. The bioavailability in data set [6] came out at 57%.

Take `N#Cc1ccc(N2N=C(c3ccc(C(=O)O)cc3)CC2c2ccncc2)cc1` (racemic): the IC50 in data set [1] was over 10000 nM.

For the compound `N#Cc1ccc(N2N=C3c4ccc(C(=O)O)cc4CC[C@@H]3[C@@H]2C2C=CC=CO2)cc1Cl` (mixture of isomers), in data set [1], half-maximal inhibition (IC50) was put at 127 nM.

Regarding `CC(C)C1CC(c2ccc(C(=O)O)cc2)=NN1c1ccc(C#N)c(Cl)c1` (racemic), the IC50 in data set [1] was 383 nM.

In the case of `O=C(O)c1ccc(C2=NN(c3ccccc3)C(c3ccc(F)cc3)C2)cc1` (racemic), inhibition in data set [1] was half-maximal at 9730 nM (IC50).

`COc1cc(N2N=C3c4ccc(C(=O)O)cc4CC[C@@H]3[C@@H]2C2CCCC2)ccc1C#N` (racemic) yielded a half-maximal inhibitory concentration (IC50) in data set [1] of 7 nM.

Regarding `N#Cc1ccc(N2N=C(c3ccc(C(=O)O)cc3)CC2c2ccc(F)cc2)cc1C(F)(F)F` (racemic), the IC50 in data set [1] was 127 nM.

On to `N#Cc1ccc(N2N=C(c3ccc(C(=O)O)cc3)CC2c2ccc(F)cc2)cc1` (racemic), for which the IC50 is 246 nM in data set [1] and over 30000 nM in data set [2].

The compound `N#Cc1ccc(N2N=C(c3ccc(C(=O)O)cc3)CC2c2ccc(F)cc2)cc1F` (racemic) had an IC50 in data set [1] of 243 nM.

With `N#Cc1ccc(N2N=C(c3ccc4[nH]c(=O)oc4c3)CC2c2ccc(C(=O)O)cc2)cc1` (racemic), the results for the IC50 in data set [1] and in data set [2] were over 10000 nM and over 30000 nM, respectively.

`N#Cc1ccc(N2N=C3c4ccc(C(=O)O)cc4CO[C@@H]3[C@@H]2c2ccc(F)cc2)cc1Cl` (racemic): the IC50 in data set [1] is 849 nM.

Consider `N#Cc1ccc(N2N=C(c3ccc(C(=O)O)c(Cl)c3)C[C@@H]2C2CCCC2)cc1Cl`, for which half-maximal inhibition in data set [1] (IC50) required 26 nM.

The compound `COCc1cc(N2N=C3c4ccc(C(=O)O)cc4CC[C@@H]3[C@@H]2C2CCCC2)ccc1C#N` had an IC50 in data set [1] of 150 nM.

`N#Cc1ccc(N2N=C3c4ccc(C(=O)O)cc4CC[C@@H]3[C@@H]2C2CCCC2)cc1OCc1ccccc1` (racemic) registered a concentration for half-maximal inhibition (IC50) in data set [1] of 488 nM.

Turning to `N#Cc1ccc(N2N=C(c3ccc(C(=O)O)cc3)CC2c2ccccn2)cc1` (racemic), the IC50 in data set [1] was over 10000 nM.

In the case of `CC(C)CC1CC(c2ccc(C(=O)O)cc2)=NN1c1ccc(C#N)cc1` (racemic), it took 2530 nM to reach half-maximal inhibition in data set [1] (IC50).

As to `Cc1cc(N2N=C(c3ccc(C(=O)O)cc3)CC2c2ccc(F)cc2)ccc1C#N` (racemic), the IC50 in data set [1] turned out to be 56 nM.

On to `N#Cc1ccc(N2N=C3c4ccc(C(=O)O)cc4CC[C@@H]3[C@@H]2C2CCCO2)cc1Cl` (mixture of isomers), for which the IC50 in data set [1] was 720 nM.

In turn, `N#Cc1ccc(N2N=C(c3ccc(C(=O)O)cc3)CC2Cc2ccccc2)cc1` (racemic) showed a concentration for half-maximal inhibition (IC50) in data set [1] of 3650 nM.

In the case of `N#Cc1ccc(N2N=C(c3ccc(CC(=O)O)cc3)C[C@@H]2C2CCCC2)cc1Cl`, in data set [1], the IC50 was determined as 135 nM.
